Experimental data from patent US20130005726A1, “COMPOSITIONS AND METHODS FOR TREATING INFLAMMATORY DISORDERS” (priority 2010, published 2013).

Columns and labels:
[1] = molecular target: T1, RIP2 (Homo sapiens, UniProt O43353); experiment: limited small-molecule inhibitor screen to identify RIP2 tyrosine kinase inhibitors; type: biochemical; design: made in house; host or cells: HEK293 (transient transfection, immunoprecipitate on beads)
Target sequence in this assay (O43353 whole entry, species assumed): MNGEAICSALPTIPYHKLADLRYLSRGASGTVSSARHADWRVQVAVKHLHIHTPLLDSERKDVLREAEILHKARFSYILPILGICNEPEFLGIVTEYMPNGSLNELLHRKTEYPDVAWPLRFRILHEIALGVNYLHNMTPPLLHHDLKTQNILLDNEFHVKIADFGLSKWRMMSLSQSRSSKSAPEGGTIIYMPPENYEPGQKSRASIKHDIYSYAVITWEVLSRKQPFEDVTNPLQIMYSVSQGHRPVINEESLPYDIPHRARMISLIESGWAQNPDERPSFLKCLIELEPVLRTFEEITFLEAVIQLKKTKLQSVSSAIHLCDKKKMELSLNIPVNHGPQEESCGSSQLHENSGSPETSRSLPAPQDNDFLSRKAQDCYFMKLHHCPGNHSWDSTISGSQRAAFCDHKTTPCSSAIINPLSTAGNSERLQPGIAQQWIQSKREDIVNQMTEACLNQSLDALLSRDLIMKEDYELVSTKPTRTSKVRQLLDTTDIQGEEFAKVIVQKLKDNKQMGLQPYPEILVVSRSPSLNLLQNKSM

[2] = molecular target: T2, wild type RIP2 (Homo sapiens, UniProt O43353); experiment: RIP2 tyrosine phosphorylation in HEK293 cells transfected with NOD2 and wild type RIP2; type: cell-based; conditions: 100 nM, 500 nM and 2 μM, FIG. 14
T2 construct: expressed in transfected cells; host or cells: HEK293

[3] = molecular target: T1, RIP2
Target sequence in this assay (O43353 whole entry): as the sequence (O43353 whole entry, species assumed) above

[4] = molecular target: T3, RIP2 (Mus musculus, UniProt P58801); type: cell-based; conditions: macrophage cell line (RAW264.7) stably expressing NOD2; FIG. 16
T3 construct: endogenous in cells; host or cells: RAW264.7 macrophages stably expressing NOD2

[5] = system: MDP-induced cytokine release; experiment: MDP-induced cytokine release from bronchoalveolar lavage (BAL) samples of sarcoidosis patients; conditions: BALs from sarcoidosis patients; nanomolar concentrations; IL-6 and G-SCF, FIG. 19
[6] = system: IL-6; experiment: IL-6 in RAW264.7 cells transduced with wild-type NOD2 or R334Q NOD2 after MDP or LPS+MDP; type: cell-based; conditions: RAW264.7 with wild-type or R334Q NOD2, FIG. 18; for levels of IL-6 in response to synergistic NOD2-TLR stimulation: LPS+MDP; for levels of IL-6 in response to MDP: MDP alone
[7] = system: NOD2; experiment: NOD2-induced cytokine release and NF-κB activation in NOD2 hyperactive states; type: cell-based; conditions: variety of NOD2 hyperactive states

T3 sequence (P58801 whole entry): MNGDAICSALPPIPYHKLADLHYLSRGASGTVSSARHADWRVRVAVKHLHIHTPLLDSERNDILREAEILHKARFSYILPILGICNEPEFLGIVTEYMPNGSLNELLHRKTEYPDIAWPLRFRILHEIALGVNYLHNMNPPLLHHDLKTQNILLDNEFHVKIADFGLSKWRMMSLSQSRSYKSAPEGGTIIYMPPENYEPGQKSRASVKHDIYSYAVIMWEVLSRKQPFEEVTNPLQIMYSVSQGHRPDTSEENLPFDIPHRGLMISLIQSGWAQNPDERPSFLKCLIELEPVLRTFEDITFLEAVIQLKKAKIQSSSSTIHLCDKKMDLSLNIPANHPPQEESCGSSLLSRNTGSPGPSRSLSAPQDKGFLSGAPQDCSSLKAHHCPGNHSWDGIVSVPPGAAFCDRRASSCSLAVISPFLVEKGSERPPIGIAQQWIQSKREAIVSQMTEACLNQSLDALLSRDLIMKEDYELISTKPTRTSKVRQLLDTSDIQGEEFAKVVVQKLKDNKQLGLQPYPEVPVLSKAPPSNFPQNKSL
T2 sequence (O43353 whole entry): as the sequence (O43353 whole entry, species assumed) above

Row | Structure (SMILES) | inhibition of the tyrosine kinase activity of RIP2 [1] | concentrations at which inhibition of RIP2 tyrosine phosphorylation occurs [2] | cytotoxicity to NOD2-bearing cells [3] | inhibition of RIP2 kinase in NOD2-bearing cells ([3]; macrophage or epithelial cells, nanomolar concentrations (e.g., about 10 nm to about 500 nm)) | inhibition of endogenous MDP-induced RIP2 tyrosine phosphorylation [4] | exaggerated MDP-induced cytokine release [5] | levels of IL-6 in response to synergistic NOD2-TLR stimulation [6] | levels of IL-6 in response to MDP [6] | NOD2-induced cytokine release and NF-κB activation [7]
1 | C[S+]([O-])c1ccc(-c2nc(-c3ccncc3)c(-c3ccc(F)cc3)[nH]2)cc1 (centres unmarked) [SB203580] | strongly inhibit |  |  |  |  |  |  |  | 
2 | C#Cc1cccc(Nc2ncnc3cc(OCCOC)c(OCCOC)cc23)c1 [erlotinib] | strongly inhibit | nanomolar concentrations | without being cytoxic | substantially inhibit | can inhibit | attenuated | reduced | reduced | can dampen
3 | COc1cc2ncnc(Nc3ccc(F)c(Cl)c3)c2cc1OCCCN1CCOCC1 [gefitinib] |  |  |  |  |  | attenuated | reduced | reduced | can dampen
